Legend:
SAE1 = SAE1 (Homo sapiens (Human), UniProt Q9UBE0+Q9UBT2); assay: SAE High Throughput Biochemical Assay (HTRF), 15 min preincubation; conditions: read-out: 15 min preincubation HTRF IC50 (μM) Ave, SAE1 12.5 nM, ATP 100 μM
Procedure, shortened: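 SAE1 (12.5 nM) was preincubated with compound for 15 min at RT in HEPES pH 7.5, 0.1% BSA, 10 mM MgCl2. The reaction was then started with SUMO-GST and UBC9-His (40 nM each) plus 100 μM ATP for 45 min. After KF stop, HTRF (anti-GST-XL665/anti-His-EuK) was read at 2 h and overnight; some compounds were tested singly at 25 micromolar as percent of control.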

[1] = Caco-2 permeability/efflux; type: in vitro ADME; conditions: human, Caco-2, pH 7.4; B-A / A-B
Experimental: (§1) Caco-2 cells were obtained from American Tissue Culture Collection (Rockville, MD). The cells were maintained in Modified Eagle's medium (MEM), containing 10% heat-inactivated fetal bovine serum (FBS), and 1% non-essential amino acids, in CO2 at 37° C. Cells were seeded on polycarbonate filter inserts (Millipore, CAT #PSHT 010 R5). The cells were cultured for 21-28 days prior to the permeability experiments. The Lucifer Yellow permeability was checked before and after the assay. Compounds were dissolved at 10 mM in 100% dimethyl sulfoxide (DMSO) and diluted for studies in Hanks Balanced Salt Solution (HBSS, Invitrogen, Cat #14025-092) with 25 mM HEPES, pH 7.4. Compounds were tested at 10 µM in both the apical-to-basolateral (A-B) and basolateral-to-apical (B-A) directions, incubations were conducted at 37° C. for 90 min. At the end of incubation, samples were diluted by assay buffer, and analyzed by LC-MS/MS. The concentrations of the compounds were quantified by standard curve. The first comparator example (Comp. Ex. 1) is the chloro substituted thienodihydropyridine

Caco-2 cells = assay: Caco-2 permeability/efflux; type: in vitro ADME; conditions: 10 uM, 37° C., 90 min, pH 7.4
Experimental: as §1

Chain of SAE1 (Q9UBE0 whole entry): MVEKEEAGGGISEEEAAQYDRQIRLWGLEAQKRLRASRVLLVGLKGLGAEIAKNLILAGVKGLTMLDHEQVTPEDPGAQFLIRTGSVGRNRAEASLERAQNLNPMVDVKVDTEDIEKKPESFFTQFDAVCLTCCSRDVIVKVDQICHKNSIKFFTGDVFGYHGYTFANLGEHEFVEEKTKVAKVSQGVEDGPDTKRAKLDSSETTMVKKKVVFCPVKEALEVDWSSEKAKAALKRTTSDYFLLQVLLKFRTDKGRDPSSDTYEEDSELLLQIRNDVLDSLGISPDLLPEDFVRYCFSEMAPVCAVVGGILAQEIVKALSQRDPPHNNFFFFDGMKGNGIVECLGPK
Chain of SAE1 (Q9UBT2 whole entry): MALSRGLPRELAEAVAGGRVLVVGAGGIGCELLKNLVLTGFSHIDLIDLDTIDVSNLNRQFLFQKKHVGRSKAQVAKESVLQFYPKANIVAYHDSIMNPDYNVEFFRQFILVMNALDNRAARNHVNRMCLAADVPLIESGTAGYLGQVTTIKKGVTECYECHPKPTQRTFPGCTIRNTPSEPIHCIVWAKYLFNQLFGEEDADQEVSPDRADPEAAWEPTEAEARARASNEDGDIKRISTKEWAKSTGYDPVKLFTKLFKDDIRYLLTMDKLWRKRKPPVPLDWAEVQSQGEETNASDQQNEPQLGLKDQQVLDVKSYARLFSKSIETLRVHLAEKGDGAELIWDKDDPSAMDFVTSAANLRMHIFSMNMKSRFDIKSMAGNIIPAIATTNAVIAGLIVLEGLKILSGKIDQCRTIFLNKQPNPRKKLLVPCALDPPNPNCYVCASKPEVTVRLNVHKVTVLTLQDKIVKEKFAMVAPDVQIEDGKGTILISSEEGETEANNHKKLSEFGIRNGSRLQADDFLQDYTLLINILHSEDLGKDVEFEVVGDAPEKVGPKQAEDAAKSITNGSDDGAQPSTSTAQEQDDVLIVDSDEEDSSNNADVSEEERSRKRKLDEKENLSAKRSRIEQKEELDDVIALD

efflux ratio at 90 min, 10 μM [1] | Caco-2 apparent permeability (Papp) (Caco-2 cells; apical-to-basolateral) | Caco-2 apparent permeability (Papp) (Caco-2 cells; basolateral-to-apical) | Compound | IC50 (SAE1) [µM]
1 | 3.4 10^-6 cm/s | 4.1 10^-6 cm/s | C=CC(=O)N1Cc2sc(C#N)c(C)c2[C@H](c2cccc(F)c2-c2cn(CC)nc2C(F)(F)F)C1 [Compound 222] | 0.1
1 | 12.7 10^-6 cm/s | 11.6 10^-6 cm/s | CCn1cc(-c2c(F)cccc2[C@@H]2CN(C(=O)/C=C/CN(C)C)Cc3sc(C#N)c(C)c32)c(C(F)(F)F)n1 [Example 46, (S, E)-6-(4-(dimethylamino)but-2-enoyl)-4-(2-(1-ethyl-3-(trifluoromethyl)-1 H-pyrazol-4-yl)-3-fluorophenyl)-3-methyl-4,5,6,7-tetrahydrothieno[2,3-c]pyridine-2-carbonitrile] | 0.2
6 | 4 10^-6 cm/s | 21 10^-6 cm/s | CCn1cc(-c2c(F)cccc2[C@@H]2CN(C(=O)/C=C/CNC)Cc3sc(C#N)cc32)c(C(F)(F)F)n1 [Example 50] | 0.51

From patent US20240360148A1 (SUVALENT THERAPEUTICS, INC., priority 2021, published 2024)
